Each structure is given as a SMILES string. Where “and” joins values, the source holds several entries; their conditions need not be identical. Equal values may be shown once. Inconclusive results and toxic doses are left out. Numbered stars: 1 amine (or outer) side, 2 acyl side, 3 side chain; on linkers, the order of the positions; unused ones are H or OH. Bridge positions count the residues as written; N and C are the ends. Square brackets hold non-standard residues; d marks the D form. Peptide text beside a SMILES is read from it. I, II: the chains in the order shown. Actinocin(9to1) = Cc1c2oc3c(C)ccc(C(=O)[*:1])c3nc-2c(C(=O)[*:2])c(N)c1=O; NMeV = CN[CH](C(=O)O)C(C)C; Sar = CNCC(=O)O

The test system of this assay is BDF1 mice, B16 melanoma ip, median survival T/C. Nature of the assay: NCI In Vivo Anticancer Drug Screen. Data for tumor model B16 Melanoma (intraperitoneal) in B6D2F1 (BDF1) mice. As to conditions: endpoint: median survival time, higher = longer survival. Summed up:
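Each result divides a survival or tumor-size measurement in the compound-treated group by the same measurement in the vehicle group.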

Where [1] appears, read: dose: 3.12 mg/kg/injection, schedule: Q01DX009 (ip), vehicle: saline.
The mark [2] stands for this setting: dose: 12.5 mg/kg/injection, schedule: Q01DX009 (ip), vehicle: Klucel (hydroxypropylcellulose) (HPC).
[3] abbreviates: dose: 25.0 mg/kg/injection, schedule: Q01DX009 (ip), vehicle: Klucel (hydroxypropylcellulose) (HPC).
The mark [4] stands for this setting: dose: 50.0 mg/kg/injection, schedule: Q01DX009 (ip), vehicle: Klucel (hydroxypropylcellulose) (HPC).
Setting [5] is: dose: 100.0 mg/kg/injection, schedule: Q01DX009 (ip), vehicle: Klucel (hydroxypropylcellulose) (HPC).
The mark [6] stands for this setting: dose: 6.25 mg/kg/injection, schedule: Q01DX009 (ip), vehicle: saline with Tween-80.
[7] abbreviates: dose: 12.5 mg/kg/injection, schedule: Q01DX009 (ip), vehicle: saline with Tween-80.
The mark [8] stands for this setting: dose: 100.0 mg/kg/injection, schedule: Q01DX009 (ip), vehicle: saline with Tween-80.
Setting [9] is: dose: 200.0 mg/kg/injection, schedule: Q01DX009 (ip), vehicle: saline with Tween-80.
[10] abbreviates: dose: 200.0 mg/kg/injection, schedule: Q01DX009 (ip), vehicle: Klucel (hydroxypropylcellulose) (HPC).
[11] abbreviates: dose: 25.0 mg/kg/injection, schedule: Q01DX009 (ip), vehicle: saline with Tween-80.
Setting [12] is: dose: 50.0 mg/kg/injection, schedule: Q01DX009 (ip), vehicle: saline with Tween-80.

With `c1ccc([P+](c2ccccc2)(c2ccccc2)c2ccccc2)cc1`, the T/C is 102 % of control (dose: 0.13 mg/kg/injection, schedule: Q01DX009 (ip), vehicle: saline); 102 % of control (dose: 0.2 mg/kg/injection, schedule: Q01DX009 (ip), vehicle: saline); 102 % of control (dose: 0.3 mg/kg/injection, schedule: Q01DX009 (ip), vehicle: saline); 113 % of control (dose: 0.44 mg/kg/injection, schedule: Q01DX009 (ip), vehicle: saline); 100 % of control (dose: 0.63 mg/kg/injection, schedule: Q04DX003 (ip), vehicle: saline); 110 % of control (dose: 0.66 mg/kg/injection, schedule: Q01DX009 (ip), vehicle: saline). Also, the T/C runs as follows: (dose: 1.0 mg/kg/injection, schedule: Q01DX009 (ip), vehicle: saline) 113 % of control; (dose: 1.25 mg/kg/injection, schedule: Q01DX009 (ip), vehicle: saline with Tween-80) 97 % of control; (dose: 1.25 mg/kg/injection, schedule: Q04DX003 (ip), vehicle: saline) 100 % of control; (dose: 1.5 mg/kg/injection, schedule: Q01DX009 (ip), vehicle: saline) 113 % of control; (dose: 2.5 mg/kg/injection, schedule: Q01DX009 (ip), vehicle: saline with Tween-80) 104 % of control; (dose: 2.5 mg/kg/injection, schedule: Q04DX003 (ip), vehicle: saline) 102 % of control. In addition, the T/C by setting is: (dose: 5.0 mg/kg/injection, schedule: Q01DX009 (ip), vehicle: saline with Tween-80) 111 % of control; (dose: 5.0 mg/kg/injection, schedule: Q04DX003 (ip), vehicle: saline) 89 % of control.
As to `CC(C)(C)C(=O)C1C(=O)c2ccccc2C1=O`, the T/C was 94 % of control (dose: 0.06 mg/kg/injection, schedule: Q01DX009 (ip), vehicle: Klucel (hydroxypropylcellulose) (HPC)); 97 % of control (dose: 0.12 mg/kg/injection, schedule: Q01DX009 (ip), vehicle: Klucel (hydroxypropylcellulose) (HPC)); 100 % of control and 108 % of control (dose: 0.25 mg/kg/injection, schedule: Q01DX009 (ip), vehicle: Klucel (hydroxypropylcellulose) (HPC)).
Take `CCC1(O)CC2c3ccccc3CCN2CC1CC(C)C` (stereo not given): the T/C is, setting by setting: (dose: 0.19 mg/kg/injection, schedule: Q01DX009 (ip), vehicle: saline) 104 % of control; (dose: 0.39 mg/kg/injection, schedule: Q01DX009 (ip), vehicle: saline) 111 % of control; (dose: 0.78 mg/kg/injection, schedule: Q01DX009 (ip), vehicle: saline) 109 % of control; (dose: 1.56 mg/kg/injection, schedule: Q01DX009 (ip), vehicle: saline) 112 % of control; under setting [1], 112 % of control.
For `Cc1c(CCl)c(C)c(CCl)c(C)c1CCl`, the T/C by setting is: (dose: 3.0 mg/kg/injection, schedule: Q01DX009 (ip), vehicle: Klucel (hydroxypropylcellulose) (HPC)) 102 % of control; (dose: 6.0 mg/kg/injection, schedule: Q01DX009 (ip), vehicle: Klucel (hydroxypropylcellulose) (HPC)) 100 % of control; (dose: 12.0 mg/kg/injection, schedule: Q01DX009 (ip), vehicle: Klucel (hydroxypropylcellulose) (HPC)) 100 % of control.
Turning to `CN=C(N)Nc1ccc(C(=O)Oc2ccc([N+](=O)[O-])cc2)cc1`, the T/C reads like this: under setting [2], 103 % of control; under setting [3], 102 % of control; under setting [4], 104 % of control; under setting [5], 106 % of control.
As for `COc1ccc(Nc2ccnc3cc(Cl)ccc23)cc1CN(CCCl)CCCl`, the T/C is 118 % of control (dose: 1.25 mg/kg/injection, schedule: Q01DX009 (ip), vehicle: Klucel (hydroxypropylcellulose) (HPC)) and 94 % of control (dose: 2.5 mg/kg/injection, schedule: Q01DX009 (ip), vehicle: Klucel (hydroxypropylcellulose) (HPC)).
As to `O=[N+]([O-])c1ccc(C=C2C(Cl)=C(Cl)C(Cl)=C2Cl)cc1`, the T/C (dose: 3.13 mg/kg/injection, schedule: Q01DX009 (ip), vehicle: saline with Tween-80) was 101 % of control; the T/C under setting [6] was 91 % of control; the T/C under setting [7] was 89 % of control.
For `CC(N)Cc1ccc2c(c1)OCO2` (stereo not given), the T/C runs as follows: under setting [1], 119 % of control; (dose: 6.25 mg/kg/injection, schedule: Q01DX009 (ip), vehicle: saline) 116 % of control; (dose: 12.5 mg/kg/injection, schedule: Q01DX009 (ip), vehicle: saline) 102 % of control; (dose: 25.0 mg/kg/injection, schedule: Q01DX009 (ip), vehicle: saline) 108 % of control; (dose: 50.0 mg/kg/injection, schedule: Q01DX009 (ip), vehicle: saline) 116 % of control.
Consider `Cc1ccc(C(=O)/C=C/c2ccccc2O)cc1`, for which the T/C is 103 % of control (dose: 37.5 mg/kg/injection, schedule: Q01DX009 (ip), vehicle: Klucel (hydroxypropylcellulose) (HPC)); 90 % of control (dose: 75.0 mg/kg/injection, schedule: Q01DX009 (ip), vehicle: Klucel (hydroxypropylcellulose) (HPC)); 98 % of control (dose: 150.0 mg/kg/injection, schedule: Q01DX009 (ip), vehicle: Klucel (hydroxypropylcellulose) (HPC)); 88 % of control (dose: 300.0 mg/kg/injection, schedule: Q01DX009 (ip), vehicle: Klucel (hydroxypropylcellulose) (HPC)).
For the compound `Cc1c2oc3c(C)ccc(C(=O)NC4C(=O)NC(C(C)C)C(=O)N5CCCC5C(=O)N(C)CC(=O)N(C)C(C(C)C)C(=O)OC4C)c3nc-2c(C(=O)NC2C(=O)NC(C(C)C)C(=O)N3CCCC3C(=O)N(C)CC(=O)N(C)C(C(C)C)C(=O)OC2C)c(N)c1=O` (stereo not given) (I: TVP[Sar][NMeV] / II: TVP[Sar][NMeV]; ester I:1-I:C, II:1-II:C; linker I:N-II:N via Actinocin(9to1); configuration not given here), the T/C runs as follows: (dose: 0.06 mg/kg/injection, schedule: Q01DX009 (ip), vehicle: saline) 165 % of control; (dose: 0.12 mg/kg/injection, schedule: Q01DX009 (ip), vehicle: saline) 177 % of control and 180 % of control.
As for `CCC(=O)Oc1[nH]c(C)c(C(C)=O)c1C`, the T/C under setting [8] is 102 % of control; the T/C under setting [9] was 100 % of control; the T/C (dose: 400.0 mg/kg/injection, schedule: Q01DX009 (ip), vehicle: saline with Tween-80) was 95 % of control.
Turning to `Cc1cccc(C(=O)CC(O)(C(F)(F)F)C(F)(F)F)n1`, the T/C by setting is: (dose: 100.0 mg/kg/injection, schedule: Q04DX003 (ip), vehicle: saline with Tween-80) 110 % of control; (dose: 200.0 mg/kg/injection, schedule: Q04DX003 (ip), vehicle: saline with Tween-80) 100 % of control; (dose: 400.0 mg/kg/injection, schedule: Q04DX003 (ip), vehicle: saline with Tween-80) 100 % of control.
Regarding `C(=N\Nc1nn[nH]n1)/c1ccncc1`, the T/C runs as follows: under setting [5], 103 % of control; under setting [10], 104 % of control.
`CCOC(CNC(=O)OCc1ccccc1)OCC`: the T/C under setting [5] is 93 % of control; the T/C under setting [10] was 93 % of control; the T/C (dose: 400.0 mg/kg/injection, schedule: Q01DX009 (ip), vehicle: Klucel (hydroxypropylcellulose) (HPC)) is 90 % of control.
Take `Fc1cccc(/C=C2/c3cc(Cl)ccc3-c3c(Cl)cc(Cl)cc32)c1`: the T/C was 90 % of control under setting [6], 93 % of control under setting [7] and 88 % of control under setting [11].
As for `CCCCOC(=O)/C=C(\Br)C(=O)OCCCC`, the T/C under setting [6] was 99 % of control and 100 % of control; the T/C under setting [7] is 98 % of control and 104 % of control; the T/C under setting [11] is 86 % of control and 98 % of control; the T/C under setting [12] is 91 % of control; the T/C under setting [8] was 90 % of control.
As to `CCOc1ccc(NC(=O)OCCN2CCN(CCc3ccccc3)C(C)C2)cc1` (stereo not given), the T/C is, setting by setting: under setting [11], 108 % of control; under setting [12], 113 % of control; under setting [8], 101 % of control.
Turning to `CCC(C)c1ccc(O)c(C(C)CC)c1` (stereo not given), the T/C is, setting by setting: (dose: 88.0 mg/kg/injection, schedule: Q01DX009 (ip), vehicle: saline with Tween-80) 123 % of control; (dose: 133.0 mg/kg/injection, schedule: Q01DX009 (ip), vehicle: saline with Tween-80) 108 % of control; under setting [9], 105 % of control; (dose: 300.0 mg/kg/injection, schedule: Q01DX009 (ip), vehicle: saline with Tween-80) 108 % of control.
Regarding `O=S(=O)(CCCl)c1ccc2ccccc2c1`, the T/C was 100 % of control (dose: 6.25 mg/kg/injection, schedule: Q01DX009 (ip), vehicle: Klucel (hydroxypropylcellulose) (HPC)); 104 % of control under setting [2]; 106 % of control under setting [3]; 104 % of control under setting [4].

The values above are taken from PubChem BioAssay AID192 (DTP/NCI, 2004).
